Results published in patent US8686035B2, “Composition and method for promoting hair growth” (R-Tech Ueno, Ltd., priority 2003, dated 2014).
Several values for one entry are separate records, joined by “and”; a condition that tells them apart may be missing. Equal entries are not always repeated. Entries after “also recorded” stand apart in the source; their conditions may differ.

Experiments:
Assay type in all cases: in vivo
C3H/HeN mice [1] = experiment: Hair growth after topical application to clipped dorsal skin, macroscopic score (Example 1); set-up: key to Hair Growth Score: −: no hair growth observed; ±: hair growth≦10% of the clipped area; +: hair growth 10-40% of the clipped area; ++: hair growth 40-80% of the clipped area; +++: hair growth ≧80% of the clipped area; settings: for Hair Growth Score / animals on which hair growth was observed: topical once daily; for Hair Growth Score: individual animals; for animals on which hair growth was observed: 0.1%, 30 days treatment period, 3 animals per group
Description: (§1) Eight-weeks-old male C3H/HeN mice were used. The hair on the back was clipped by electric clipper so that the hair in the clipped area was removed as much as possible. Three days after the clipping, mice without visible scratches were selected and used in this study. Each group consisted of 3 animals. After group assignment, the groups were housed separately in aluminum cages (3 animals/cage, 180 mm W×300 mm D×130 mm H; Nippon Cage, Ltd., Japan).
Each test compound was dissolved in 70% (w/w) aqueous ethanol. Each dose formulation of test compound was evenly applied topically once daily (100 μL per mouse) to the clipped dorsal skin area (approximately 2×4 cm), except for Saturday and Sunday, for 30 days. The control group received an equal amount of the vehicle in the same manner.
Macroscopic observations of the hair growth were performed 14, 16, 18, 21, 23, 25, 28 and 30 days after the start of the treatment. Hair growth was scored according to the scale below:
− no hair growth observed
± hair growth≦10% of the clipped area
+ hair growth 10-40% of the clipped area
++ hair growth 40-80% of the clipped area
+++ hair growth ≧80% of the clipped area

C3H/HeN mice [2] = experiment: Thickness of grown-up hair (Example 3); settings: 0.1% treated area, hairs collected 31 days after start of treatment of Example 1, n=3
Description: 31 days after the start of the treatment conducted in Example 1, grown-up hairs in the treated area and hairs in the untreated area (i.e. non clipped area) were collected, respectively. Enlarged photomicrographs of the collected hairs were taken. Thickness of the randomly selected each ten hairs were measured and calculated the average.

C3H/HeN mice [3] = experiment: Hair growth after topical application to clipped dorsal skin, macroscopic score (Example 2); set-up: key to Hair Growth Score: −: no hair growth observed; ±: hair growth≦10% of the clipped area; +: hair growth 10-40% of the clipped area; ++: hair growth 40-80% of the clipped area; +++: hair growth ≧80% of the clipped area; settings: topical once daily; for Hair Growth Score: 0.1% in 75% aqueous ethanol, individual animals
Description: as §1
Test compound was dissolved in 75% aqueous ethanol. The formulation of test compound (compound E) was evenly applied topically once daily (100 μL per mouse) to the clipped dorsal skin area (approximately 2×4 cm), except for Saturday and Sunday, for 23 days. The control group received an equal amount of the vehicle in the same manner.
Macroscopic observations of the hair growth were performed 14, 16, 18, 21 and 23 days after the start of the treatment. Hair growth was scored according to the scale shown as above. In the 0.1% compound E-treated group, hair growth was observed on 3 out of 3 animals.

[4] = 0.1% in 70% (w/w) aqueous ethanol, day 14 of treatment
[5] = 0.1% in 70% (w/w) aqueous ethanol, day 16 of treatment
[6] = 0.1% in 70% (w/w) aqueous ethanol, day 18 of treatment
[7] = 0.1% in 70% (w/w) aqueous ethanol, day 21 of treatment
[8] = 0.1% in 70% (w/w) aqueous ethanol, day 23 of treatment
[9] = 0.1% in 70% (w/w) aqueous ethanol, day 25 of treatment
[10] = 0.1% in 70% (w/w) aqueous ethanol, day 28 of treatment
[11] = 0.1% in 70% (w/w) aqueous ethanol, day 30 of treatment

For `CCCCCCCC1(CCC2C(O)CC(O)C2C/C=C\CCCC(=O)OC(C)C)OCCO1` (stereo not drawn) [Compound A, 13,14-dihydro-15,15-ethylenedioxy-20-ethyl-PGF2α isopropyl ester], the “hair growth, dose dependence” value (C3H/HeN mice [1]; 0.01% and 0.1% treated groups) was “dose-dependent hair growth”, the “Hair Growth Score” value (C3H/HeN mice [1]; 0.01% in 70% (w/w) aqueous ethanol, day 14 of treatment) was “−” and the “Hair Growth Score” value (C3H/HeN mice [1]; 0.01% in 70% (w/w) aqueous ethanol, day 16 of treatment) was “−”. For the same molecule, the “Hair Growth Score” value (C3H/HeN mice [1]; 0.01% in 70% (w/w) aqueous ethanol, day 18 of treatment) was “− (2×) and ± (hair growth≦10% of the clipped area)”, the “Hair Growth Score” value (C3H/HeN mice [1]; 0.01% in 70% (w/w) aqueous ethanol, day 21 of treatment) was “− (2×) and ± (hair growth≦10% of the clipped area)” and the “Hair Growth Score” value (C3H/HeN mice [1]; 0.01% in 70% (w/w) aqueous ethanol, day 23 of treatment) was “− (2×) and ± (hair growth≦10% of the clipped area)”. The “Hair Growth Score” value (C3H/HeN mice [1]; 0.01% in 70% (w/w) aqueous ethanol, day 25 of treatment) was “− and + (hair growth 10-40% of the clipped area) (2×)”, the “Hair Growth Score” value (C3H/HeN mice [1]; 0.01% in 70% (w/w) aqueous ethanol, day 28 of treatment) was “+ (hair growth 10-40% of the clipped area); also recorded: ++ (hair growth 40-80% of the clipped area)” and the “Hair Growth Score” value (C3H/HeN mice [1]; 0.01% in 70% (w/w) aqueous ethanol, day 30 of treatment) was “+ (hair growth 10-40% of the clipped area); also recorded: ++ (hair growth 40-80% of the clipped area)”. For the same molecule, the “Hair Growth Score” value (C3H/HeN mice [1]; [4]) was “−”, the “Hair Growth Score” value (C3H/HeN mice [1]; [5]) was “± (hair growth≦10% of the clipped area) (2×) and −” and the “Hair Growth Score” value (C3H/HeN mice [1]; [6]) was “± (hair growth≦10% of the clipped area)”. The “Hair Growth Score” value (C3H/HeN mice [1]; [7]) was “+ (hair growth 10-40% of the clipped area)”, the “Hair Growth Score” value (C3H/HeN mice [1]; [8]) was “++ (hair growth 40-80% of the clipped area)” and the “Hair Growth Score” value (C3H/HeN mice [1]; [9]) was “++ (hair growth 40-80% of the clipped area)”. The “Hair Growth Score” value (C3H/HeN mice [1]; [10]) was “+++ (hair growth ≧80% of the clipped area)”, the “Hair Growth Score” value (C3H/HeN mice [1]; [11]) was “+++ (hair growth ≧80% of the clipped area)” and the “Hair thickness, μm mean ± SE” value (C3H/HeN mice [2]) was 34.1 ± 1.6 μm.
`CCCCCCCC1(CCC2C(O)CC(O)C2C/C=C\CCCC(=O)OCC)OCCO1` (stereo not drawn) [Compound E, 13,14-dihydro-15,15-ethylenedioxy-20-ethyl-PGF2α ethyl ester] was tested, and the “Hair Growth Score” value (C3H/HeN mice [3]; day 14 of treatment) was “−”, the “Hair Growth Score” value (C3H/HeN mice [3]; day 16 of treatment) was “−” and the “Hair Growth Score” value (C3H/HeN mice [3]; day 18 of treatment) was “± (hair growth≦10% of the clipped area) (2×) and −”. For the same molecule, the “Hair Growth Score” value (C3H/HeN mice [3]; day 21 of treatment) was “++ (hair growth 40-80% of the clipped area); also recorded: + (hair growth 10-40% of the clipped area)”, the “Hair Growth Score” value (C3H/HeN mice [3]; day 23 of treatment) was “+ (hair growth 10-40% of the clipped area); also recorded: ++ (hair growth 40-80% of the clipped area)” and the “animals on which hair growth was observed” value (shortened to “animals”) (C3H/HeN mice [3]; 0.1%, 23 days treatment period, 3 animals per group) was 3 out of 3.
For `CCCCCCCC1(CCC2C(O)CC(O)C2C/C=C\CCCC(=O)OC(C)C)OCCCO1` (stereo not drawn) [Compound C, 13,14-dihydro-15,15-trimethylenedioxy-20-ethyl-PGF2α isopropyl ester], the “Hair Growth Score” value (C3H/HeN mice [1]; [4]) was “−”, the “Hair Growth Score” value (C3H/HeN mice [1]; [5]) was “−” and the “Hair Growth Score” value (C3H/HeN mice [1]; [6]) was “− (2×) and ± (hair growth≦10% of the clipped area)”. For the same molecule, the “Hair Growth Score” value (C3H/HeN mice [1]; [7]) was “− (2×) and ± (hair growth≦10% of the clipped area)”, the “Hair Growth Score” value (C3H/HeN mice [1]; [8]) was “− (2×) and ± (hair growth≦10% of the clipped area)” and the “Hair Growth Score” value (C3H/HeN mice [1]; [9]) was “− (2×) and + (hair growth 10-40% of the clipped area)”. For the same molecule, the “Hair Growth Score” value (C3H/HeN mice [1]; [10]) was “− (2×) and + (hair growth 10-40% of the clipped area)”, the “Hair Growth Score” value (C3H/HeN mice [1]; [11]) was “− (2×) and + (hair growth 10-40% of the clipped area)” and the “animals” value (C3H/HeN mice [1]) was 1 out of 3.
For `CCCCCCCC(CCC1C(O)CC(O)C1C/C=C\CCCC(=O)OC(C)C)(OC)OC` (stereo not drawn) [Compound D, 13,14-dihydro-15,15-dimethoxy-20-ethyl-PGF2α isopropyl ester], the “Hair Growth Score” value (C3H/HeN mice [1]; [4]) was “−”, the “Hair Growth Score” value (C3H/HeN mice [1]; [5]) was “− (2×) and ± (hair growth≦10% of the clipped area)” and the “Hair Growth Score” value (C3H/HeN mice [1]; [6]) was “− (2×) and ± (hair growth≦10% of the clipped area)”. The “Hair Growth Score” value (C3H/HeN mice [1]; [7]) was “− (2×) and + (hair growth 10-40% of the clipped area)”, the “Hair Growth Score” value (C3H/HeN mice [1]; [8]) was “− (2×) and + (hair growth 10-40% of the clipped area)” and the “Hair Growth Score” value (C3H/HeN mice [1]; [9]) was “− (2×) and + (hair growth 10-40% of the clipped area)”. For the same molecule, the “Hair Growth Score” value (C3H/HeN mice [1]; [10]) was “− and ++ (hair growth 40-80% of the clipped area) and ± (hair growth≦10% of the clipped area)”, the “Hair Growth Score” value (C3H/HeN mice [1]; [11]) was “− and ++ (hair growth 40-80% of the clipped area) and ± (hair growth≦10% of the clipped area)” and the “animals” value (C3H/HeN mice [1]) was 2 out of 3.
For `CC(C)OC(=O)CCC/C=C\CC1C(O)CC(O)C1CCC1(CCc2ccccc2)OCCO1` (stereo not drawn) [Compound B, 13,14-dihydro-15,15-ethylenedioxy-17-phenyl-18,19,20-trinor-PGF2α isopropyl ester], the “Hair Growth Score” value (C3H/HeN mice [1]; [4]) was “−”, the “Hair Growth Score” value (C3H/HeN mice [1]; [5]) was “−” and the “Hair Growth Score” value (C3H/HeN mice [1]; [6]) was “± (hair growth≦10% of the clipped area) and − (2×)”. For the same molecule, the “Hair Growth Score” value (C3H/HeN mice [1]; [7]) was “± (hair growth≦10% of the clipped area)”, the “Hair Growth Score” value (C3H/HeN mice [1]; [8]) was “+ (hair growth 10-40% of the clipped area)” and the “Hair Growth Score” value (C3H/HeN mice [1]; [9]) was “++ (hair growth 40-80% of the clipped area); also recorded: + (hair growth 10-40% of the clipped area)”. For the same molecule, the “Hair Growth Score” value (C3H/HeN mice [1]; [10]) was “++ (hair growth 40-80% of the clipped area)”, the “Hair Growth Score” value (C3H/HeN mice [1]; [11]) was “++ (hair growth 40-80% of the clipped area)” and the “Hair Growth Score” value (C3H/HeN mice [1]; 0.1% in 70% (w/w) aqueous ethanol, day 30 of treatment, listed as compound B) was “++ (hair growth 40-80% of the clipped area)”. For the same molecule, the “Hair thickness, μm mean ± SE” value (C3H/HeN mice [2]) was 33.3 ± 0.7 μm.
